Experimental data taken from US10709702B2, “Treatment of skin disorders by topical administration of VEGF inhibitors” (AMD THERAPEUTICS LLC, priority 2015, dated 2020).

Experiment: Skin absorption after topical application to a hand, disappearance of red color
Type: in vivo, human

CO[C@H]1/C=C/O[C@@]2(C)Oc3c(C)c(O)c4c(O)c(c(/C=N/N5CCN(C)CC5)c(O)c4c3C2=O)NC(=O)/C(C)=C\C=C\[C@H](C)[C@H](O)[C@@H](C)[C@@H](O)[C@@H](C)[C@H](OC(C)=O)[C@@H]1C [rifampicin]
Time until absorbed in skin tissue (red color disappeared): 1 to 2 h
